In PubChem BioAssay (NCI):
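Method: 48-hour compound exposure of cells in 96-well plates, five concentrations, linear interpolation of endpoints. Here, GI50 denotes the concentration required for 50% inhibition of growth. TGI marks complete inhibition of growth.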

Experiments:
Experiment in all cases: DTP human tumour cell line panel, 48 h; in the data active = GI50 below about 0.43 µM; inactive = the rest
OVCAR-3 ovarian = tested on: OVCAR-3 ovarian
SNB-75 CNS = tested on: SNB-75 CNS
NCI-H226 lung = tested on: NCI-H226 lung
SF-295 CNS = tested on: SF-295 CNS
HOP-92 NSCLC = tested on: HOP-92 NSCLC
MDA-MB-435 = tested on: MDA-MB-435
NCI-H460 lung = tested on: NCI-H460 lung
HL-60(TB) leukemia = tested on: HL-60(TB) leukemia
T-47D breast = tested on: T-47D breast
SF-268 CNS = tested on: SF-268 CNS
KM12 colon = tested on: KM12 colon
NCI/ADR-RES ovarian = tested on: NCI/ADR-RES ovarian
SK-MEL-5 melanoma = tested on: SK-MEL-5 melanoma
RXF 393 renal = tested on: RXF 393 renal
IGROV1 ovarian = tested on: IGROV1 ovarian
COLO 205 colon = tested on: COLO 205 colon
BT-549 breast = tested on: BT-549 breast
TK-10 renal = tested on: TK-10 renal
HCT-116 colon = tested on: HCT-116 colon
OVCAR-5 ovarian = tested on: OVCAR-5 ovarian
NCI-H23 lung = tested on: NCI-H23 lung
UO-31 renal = tested on: UO-31 renal
OVCAR-8 ovarian = tested on: OVCAR-8 ovarian
UACC-62 melanoma = tested on: UACC-62 melanoma
SK-MEL-2 melanoma = tested on: SK-MEL-2 melanoma
OVCAR-4 ovarian = tested on: OVCAR-4 ovarian
U251 CNS = tested on: U251 CNS
786-0 renal = tested on: 786-0 renal
K-562 leukemia = tested on: K-562 leukemia
HT29 colon = tested on: HT29 colon
DU-145 prostate = tested on: DU-145 prostate
HCT-15 colon = tested on: HCT-15 colon
SK-MEL-28 melanoma = tested on: SK-MEL-28 melanoma
RPMI-8226 leukemia = tested on: RPMI-8226 leukemia
HS 578T breast = tested on: HS 578T breast
LOX IMVI melanoma = tested on: LOX IMVI melanoma
SN12C renal = tested on: SN12C renal
A498 renal = tested on: A498 renal
SNB-19 CNS = tested on: SNB-19 CNS
MDA-MB-231 breast = tested on: MDA-MB-231 breast
HCC-2998 colon = tested on: HCC-2998 colon
SR leukemia = tested on: SR leukemia
SW-620 colon = tested on: SW-620 colon
CAKI-1 renal = tested on: CAKI-1 renal
PC-3 prostate = tested on: PC-3 prostate
MALME-3M melanoma = tested on: MALME-3M melanoma
ACHN renal = tested on: ACHN renal
MCF7 breast = tested on: MCF7 breast
MOLT-4 leukemia = tested on: MOLT-4 leukemia
HOP-62 NSCLC = tested on: HOP-62 NSCLC
SK-OV-3 ovarian = tested on: SK-OV-3 ovarian
SF-539 CNS = tested on: SF-539 CNS
M14 melanoma = tested on: M14 melanoma
EKVX NSCLC = tested on: EKVX NSCLC
UACC-257 melanoma = tested on: UACC-257 melanoma
A549 NSCLC = tested on: A549 NSCLC
NCI-H522 lung = tested on: NCI-H522 lung

CCCC(c1nnnn1C1CCCCC1)N1CCN(C(=O)c2ccco2)CC1 (stereo unspecified)
inactive: GI50 (OVCAR-3 ovarian) > 100 µM | GI50 (SNB-75 CNS) > 100 µM | GI50 (NCI-H226 lung) > 100 µM | GI50 (SF-295 CNS) > 100 µM | GI50 (HOP-92 NSCLC) > 100 µM | GI50 (MDA-MB-435) > 100 µM | GI50 (NCI-H460 lung) > 100 µM | GI50 (HL-60(TB) leukemia) > 100 µM | GI50 (T-47D breast) > 100 µM | GI50 (SF-268 CNS) > 100 µM | GI50 (KM12 colon) > 100 µM | GI50 (NCI/ADR-RES ovarian) > 100 µM | GI50 (SK-MEL-5 melanoma) > 100 µM | GI50 (RXF 393 renal) > 100 µM | GI50 (IGROV1 ovarian) > 100 µM | GI50 (COLO 205 colon) > 100 µM | GI50 (BT-549 breast) > 100 µM | GI50 (TK-10 renal) > 100 µM | GI50 (HCT-116 colon) > 100 µM | GI50 (OVCAR-5 ovarian) > 100 µM | GI50 (NCI-H23 lung) > 100 µM | GI50 (UO-31 renal) > 100 µM | GI50 (OVCAR-8 ovarian) > 100 µM | GI50 (UACC-62 melanoma) > 100 µM | GI50 (SK-MEL-2 melanoma) > 100 µM | GI50 (OVCAR-4 ovarian) > 100 µM | GI50 (U251 CNS) > 100 µM | GI50 (786-0 renal) > 100 µM | GI50 (K-562 leukemia) > 100 µM | GI50 (HT29 colon) > 100 µM | GI50 (DU-145 prostate) > 100 µM | GI50 (HCT-15 colon) > 100 µM | GI50 (SK-MEL-28 melanoma) > 100 µM | GI50 (RPMI-8226 leukemia) > 100 µM | GI50 (HS 578T breast) > 100 µM | GI50 (LOX IMVI melanoma) > 100 µM | GI50 (SN12C renal) > 100 µM | GI50 (A498 renal) > 100 µM | GI50 (SNB-19 CNS) > 100 µM | GI50 (MDA-MB-231 breast) > 100 µM | GI50 (HCC-2998 colon) > 100 µM | GI50 (SR leukemia) > 100 µM | GI50 (SW-620 colon) > 100 µM | GI50 (CAKI-1 renal) > 100 µM | GI50 (PC-3 prostate) > 100 µM | GI50 (MALME-3M melanoma) > 100 µM | GI50 (ACHN renal) > 100 µM | GI50 (MCF7 breast) > 100 µM | GI50 (MOLT-4 leukemia) > 100 µM | GI50 (HOP-62 NSCLC) > 100 µM | GI50 (SK-OV-3 ovarian) > 100 µM | GI50 (SF-539 CNS) > 100 µM | GI50 (M14 melanoma) > 100 µM
> 100 µM: TGI (OVCAR-3 ovarian) | TGI (SNB-75 CNS) | TGI (NCI-H226 lung) | TGI (SF-295 CNS) | TGI (HOP-92 NSCLC) | TGI (MDA-MB-435) | TGI (NCI-H460 lung) | TGI (HL-60(TB) leukemia) | TGI (T-47D breast) | TGI (SF-268 CNS) | TGI (KM12 colon) | TGI (NCI/ADR-RES ovarian) | TGI (SK-MEL-5 melanoma) | TGI (RXF 393 renal) | TGI (IGROV1 ovarian) | TGI (COLO 205 colon) | TGI (BT-549 breast) | TGI (TK-10 renal) | TGI (HCT-116 colon) | TGI (OVCAR-5 ovarian) | TGI (NCI-H23 lung) | TGI (UO-31 renal) | TGI (OVCAR-8 ovarian) | TGI (UACC-62 melanoma) | TGI (SK-MEL-2 melanoma) | TGI (OVCAR-4 ovarian) | TGI (U251 CNS) | TGI (786-0 renal) | TGI (K-562 leukemia) | TGI (HT29 colon) | TGI (DU-145 prostate) | TGI (HCT-15 colon) | TGI (SK-MEL-28 melanoma) | TGI (RPMI-8226 leukemia) | TGI (HS 578T breast) | TGI (LOX IMVI melanoma) | TGI (SN12C renal) | TGI (A498 renal) | TGI (SNB-19 CNS) | TGI (MDA-MB-231 breast) | TGI (HCC-2998 colon) | TGI (SR leukemia) | TGI (SW-620 colon) | TGI (CAKI-1 renal) | TGI (PC-3 prostate) | TGI (MALME-3M melanoma) | TGI (ACHN renal) | TGI (MCF7 breast) | TGI (MOLT-4 leukemia) | TGI (HOP-62 NSCLC) | TGI (SK-OV-3 ovarian) | TGI (SF-539 CNS) | TGI (M14 melanoma)

OC1CCN(c2c3ccccc3nc3ccccc23)CC1
35.6 µM: TGI (SK-MEL-5 melanoma) | TGI (A498 renal)
54.9 µM: TGI (MDA-MB-435)
> 100 µM: TGI (OVCAR-3 ovarian) | TGI (NCI-H226 lung) | TGI (HOP-92 NSCLC) | TGI (HL-60(TB) leukemia) | TGI (KM12 colon) | TGI (NCI/ADR-RES ovarian) | TGI (EKVX NSCLC) | TGI (HCT-116 colon) | TGI (OVCAR-5 ovarian) | TGI (NCI-H23 lung) | TGI (786-0 renal) | TGI (K-562 leukemia) | TGI (DU-145 prostate) | TGI (RPMI-8226 leukemia) | TGI (HS 578T breast) | TGI (LOX IMVI melanoma) | TGI (SN12C renal) | TGI (A549 NSCLC) | TGI (SR leukemia) | TGI (SW-620 colon) | TGI (PC-3 prostate) | TGI (MOLT-4 leukemia) | TGI (HOP-62 NSCLC) | TGI (SF-539 CNS) | TGI (M14 melanoma)
5.44 µM: TGI (HT29 colon)
7.42 µM: TGI (NCI-H522 lung)
34 µM: TGI (SF-268 CNS)
36.9 µM: TGI (MALME-3M melanoma)
27.6 µM: TGI (SK-MEL-2 melanoma)
41.1 µM: TGI (BT-549 breast)
9.45 µM: TGI (COLO 205 colon)
40.6 µM: TGI (IGROV1 ovarian)
39.7 µM: TGI (HCT-15 colon)
79 µM: TGI (OVCAR-8 ovarian)
4.78 µM: TGI (T-47D breast)
50.9 µM: TGI (NCI-H460 lung)
40.8 µM: TGI (UACC-257 melanoma)
82.7 µM: TGI (SK-OV-3 ovarian)
99.3 µM: TGI (UACC-62 melanoma)
5.52 µM: TGI (SK-MEL-28 melanoma)
10.3 µM: TGI (MCF7 breast)
44.7 µM: TGI (SNB-75 CNS)
84.9 µM: TGI (MDA-MB-231 breast)
50.5 µM: TGI (CAKI-1 renal)
75 µM: TGI (SNB-19 CNS)
22.1 µM: TGI (TK-10 renal)
26.4 µM: TGI (ACHN renal)
51.1 µM: TGI (U251 CNS)
17.5 µM: TGI (RXF 393 renal)
72.9 µM: TGI (SF-295 CNS)
36.6 µM: TGI (OVCAR-4 ovarian)
